{"source": "paper PMC9881724", "about": "“Rational design of potent ultrashort antimicrobial peptides with programmable assembly into nanostructured hydrogels” (Frontiers in Chemistry, 2023)", "key": {"E. faecium": {"tested_on": "E. faecium", "format": "cell-based", "protocol": "(§1) Minimal inhibitory concentration (MIC) assays were performed following a standard broth dilution procedure ([Wiegand et al., 2008]) in which bacteria were grown in MHB and fungal in SB overnight. The overnight bacterial suspension was adjusted to 10^6 CFU/ml in broth according to MacFarlane standard. Bacterial solutions were mixed in 96-well plates with the peptide solution to reach final concentrations of peptides ranging from 1,082 to 2 μM, including inhibition control (Indolicidin), growth control, and sterility control. Within each MIC experiment, each peptide was tested in triplicate across this concentration range and repeated on 3 independent days. Media and glassware were sterilized at 120°C for 1 h with an autoclave prior to all bioassays."}, "[1]": {"tested_on": "S. aureus ATCC BAA-1756 (methicillin resistant)", "format": "cell-based", "excerpt": "(§2) Indolicidin (sequence: ILPWKWPWWPWRR-NH2, molecular weight: 1,906.3 g/mol) and FMOC-WWRR-NH2 (molecular weight: 924.1) were obtained from ChemPep (USA) as lyophilized powder and acetate salts with a purity >95%. Ethanol and Congo red were purchased from Sigma-Aldrich (Australia). Sodium chloride was purchased from Alfa Aesar (United Kingdom). The negative staining agent phosphotungstic acid was purchased from Proscitech (Australia). A Milipore filter system was utilized to obtain Milli-Q water. BD Difco Mueller Hinton Broth (MHB) and Sabouraud broth (SB) were purchased from Cell biosciences (Australia). Strains: E. coli NCTC 10418, P. aeruginosa ATCC 9721, E. faecalis ATCC 19433, S. aureus ATCC 25923, S. aureus ATCC BAA-1756 (methicillin resistant), Streptococcus pneumoniae ATCC 49619, Candida albicans ATCC 10231 and Candida auris DSM 21092 (Fluconazole resistant) were provided by the RMIT microbial culture collection. Bacterial strains were stored in 50% glycerol at −20 and −80°C.\nas §1"}, "E. faecalis ATCC 19433": {"tested_on": "E. faecalis ATCC 19433", "format": "cell-based", "excerpt": "as §2, §1"}, "[2]": {"tested_on": "Candida albicans ATCC 10231", "format": "cell-based", "excerpt": "as §2, §1"}, "[3]": {"tested_on": "Candida auris DSM 21092 (Fluconazole resistant)", "format": "cell-based", "excerpt": "as §2, §1"}, "P. aeruginosa ATCC 9721": {"tested_on": "P. aeruginosa ATCC 9721", "format": "cell-based", "excerpt": "as §2, §1"}, "E. coli NCTC 10418": {"tested_on": "E. coli NCTC 10418", "format": "cell-based", "excerpt": "as §2, §1"}, "[4]": {"tested_on": "Streptococcus pneumoniae ATCC 49619", "format": "cell-based", "excerpt": "as §2, §1"}, "[5]": {"format": "physicochemical", "protocol": "The peptides were prepared by mixing the lyophilized peptide directly with type 1 water, vortexed for a few seconds to obtain an isotropic solution and stored at 4°C–5°C in between experiments."}, "S. aureus ATCC 25923": {"tested_on": "S. aureus ATCC 25923", "format": "cell-based", "settings": "ATCC 25923, 1 h", "excerpt": "as §2, §1"}, "[6]": {"settings": "broth dilution in MHB, 10^6 CFU/ml, peptide 1,082 to 2 μM, triplicate on 3 independent days"}, "[7]": {"settings": "broth dilution in Sabouraud broth, peptide 1,082 to 2 μM, triplicate on 3 independent days"}}, "note": "Like-named read-outs stand apart in the source and are kept apart here. Residues, ends and D or L forms follow the SMILES beside them. No end group written: not given here. *: point of attachment. Fmoc = O=C(OCC1c2ccccc2-c2ccccc21)*"}
{"molecule": "CC[C@H](C)[C@H](N)C(=O)N[C@@H](CC(C)C)C(=O)N1CCC[C@H]1C(=O)N[C@@H](Cc1c[nH]c2ccccc12)C(=O)N[C@@H](CCCCN)C(=O)N[C@@H](Cc1c[nH]c2ccccc12)C(=O)N1CCC[C@H]1C(=O)N[C@@H](Cc1c[nH]c2ccccc12)C(=O)N[C@@H](Cc1c[nH]c2ccccc12)C(=O)N1CCC[C@H]1C(=O)N[C@@H](Cc1c[nH]c2ccccc12)C(=O)N[C@@H](CCCNC(=N)N)C(=O)N[C@@H](CCCNC(=N)N)C(N)=O", "note": "[Indolicidin, reference compound]", "values": [{"measurement": "MIC E. faecium", "setting": "E. faecium; [6]", "value": 33, "unit": "µM"}, {"measurement": "MIC S. aureus Methicillin resistant", "setting": "[1]; second value of cell S. aureus/Methicillin resistant, broth dilution in MHB, 10^6 CFU/ml, peptide 1,082 to 2 μM, triplicate on 3 independent days", "value": 33, "unit": "µM"}, {"measurement": "MIC E. faecalis", "setting": "E. faecalis ATCC 19433; [6]", "value": 33, "unit": "µM"}, {"measurement": "MIC C. albicans", "setting": "[2]; [7]", "value": 4, "unit": "µM"}, {"measurement": "MIC C. auris Fluconazole resistant", "setting": "[3]; [7]", "value": 16, "unit": "µM"}, {"measurement": "MIC P. aeruginosa", "setting": "P. aeruginosa ATCC 9721; [6]", "value": 33, "unit": "µM"}, {"measurement": "MIC E. coli", "setting": "E. coli NCTC 10418; [6]", "value": 16, "unit": "µM"}, {"measurement": "MIC S. pneumoniae", "setting": "[4]; [6]", "value": 16, "unit": "µM"}]}
{"molecule": "N=C(N)NCCC[C@H](NC(=O)[C@H](CCCNC(=N)N)NC(=O)[C@H](Cc1c[nH]c2ccccc12)NC(=O)[C@H](Cc1c[nH]c2ccccc12)NC(=O)OCC1c2ccccc2-c2ccccc21)C(N)=O", "note": "[Priscilicidin, Fmoc-WWRR-NH2] (Fmoc-WWRR-NH2)", "values": [{"measurement": "Concentration easily solubilised in pure water", "setting": "[5]", "value": "at least 10 % w/w"}, {"measurement": "MIC E. faecium", "setting": "E. faecium; 1 h", "value": 34, "unit": "µM"}, {"measurement": "MIC S. aureus Methicillin resistant", "setting": "[1]; ATCC BAA-1756, 1 h", "value": 34, "unit": "µM"}, {"measurement": "MIC E. faecalis", "setting": "E. faecalis ATCC 19433; ATCC 19433, 1 h", "value": 68, "unit": "µM"}, {"measurement": "MIC C. albicans", "setting": "[2]; ATCC 10231, 1 h", "value": 8, "unit": "µM"}, {"measurement": "MIC S. aureus", "setting": "S. aureus ATCC 25923", "value": 17, "unit": "µM"}, {"measurement": "MIC C. auris Fluconazole resistant", "setting": "[3]; DSM 21092, 1 h", "value": 17, "unit": "µM"}, {"measurement": "MIC P. aeruginosa", "setting": "P. aeruginosa ATCC 9721; ATCC 9721, 1 h", "value": 68, "unit": "µM"}, {"measurement": "MIC E. coli", "setting": "E. coli NCTC 10418; NCTC 10418, 1 h", "value": 68, "unit": "µM"}, {"measurement": "MIC S. pneumoniae", "setting": "[4]; ATCC 49619, 1 h", "value": 17, "unit": "µM"}]}
{"molecule": "WPWRR-NH2 [Indolicidin C-terminus, WPWRR-NH2, reference compound]", "values": [{"measurement": "MIC C. albicans", "setting": "[2]; ATCC 10231, 1 h", "value": 78, "unit": "µM"}, {"measurement": "MIC C. auris Fluconazole resistant", "setting": "[3]; DSM 21092, 1 h", "value": 313, "unit": "µM"}, {"measurement": "MIC P. aeruginosa", "setting": "P. aeruginosa ATCC 9721; ATCC 9721, 1 h", "value": 313, "unit": "µM"}, {"measurement": "MIC E. coli", "setting": "E. coli NCTC 10418; NCTC 10418, 1 h", "value": 313, "unit": "µM"}]}
